Laboratory results published in the NIST ThermoML archive (doi:10.1016/j.jct.2009.08.002).
± gives the expanded uncertainty stated by the source.

Assay: molar heat capacity at constant pressure; xn = mol fraction of the nth substance listed
Conditions: Liquid, Large sample (1 g) DSC

CCCCCCn1cc[n+](C)c1.F[B-](F)(F)F [1-hexyl-3-methylimidazolium tetrafluoroborate] + CC#N
molar heat capacity at constant pressure [J/K/mol]
Conditions	283.15 K	288.15 K	293.15 K	298.15 K	303.15 K	308.15 K	313.15 K	318.15 K	323.15 K
x1 = 0.0648	110.9 ± 1.7	111.2 ± 1.7	111.6 ± 1.7	112.1 ± 1.7	112.5 ± 1.7	113 ± 1.8	113.5 ± 1.8	114 ± 1.8	114.6 ± 1.8
x1 = 0.1342	133.5 ± 2.1	134 ± 2.1	134.5 ± 2.1	135 ± 2.1	135.6 ± 2.1	136.2 ± 2.1	136.8 ± 2.1	137.4 ± 2.1	138.1 ± 2.1
x1 = 0.2127	159.4 ± 2.5	160 ± 2.5	160.7 ± 2.5	161.4 ± 2.5	162.1 ± 2.5	162.9 ± 2.5	163.7 ± 2.5	164.5 ± 2.6	165.3 ± 2.6
x1 = 0.2732	179.6 ± 2.8	180.3 ± 2.8	181.1 ± 2.8	181.8 ± 2.8	182.7 ± 2.8	183.6 ± 2.8	184.5 ± 2.9	185.5 ± 2.9	186.6 ± 2.9
x1 = 0.3828	216.5 ± 3.4	217.5 ± 3.4	218.5 ± 3.4	219.6 ± 3.4	220.7 ± 3.4	221.8 ± 3.4	223 ± 3.5	224.2 ± 3.5	225.5 ± 3.5
x1 = 0.5367	268.5 ± 4.2	269.8 ± 4.2	271.2 ± 4.2	272.6 ± 4.2	274 ± 4.2	275.6 ± 4.3	277.2 ± 4.3	278.8 ± 4.3	280.5 ± 4.3
x1 = 0.7064	326.1 ± 5.1	327.7 ± 5.1	329.4 ± 5.1	331.2 ± 5.1	333.1 ± 5.2	335.1 ± 5.2	337.1 ± 5.2	339.2 ± 5.3	341.4 ± 5.3
x1 = 0.8344	369.2 ± 5.7	371.2 ± 5.8	373.2 ± 5.8	375.3 ± 5.8	377.4 ± 5.8	379.7 ± 5.9	382 ± 5.9	384.5 ± 6	387 ± 6
x1 = 1	425 ± 6.6	427.2 ± 6.6	429.6 ± 6.7	432 ± 6.7	434.6 ± 6.7	437.2 ± 6.8	440 ± 6.8	442.9 ± 6.9	445.8 ± 6.9

CCCCCCCC[n+]1ccn(C)c1.F[B-](F)(F)F [1-methyl-3-octylimidazolium tetrafluoroborate] + CC#N
molar heat capacity at constant pressure [J/K/mol]
Conditions	x1 = 0.0359	x1 = 0.1135	x1 = 0.1694	x1 = 0.2341	x1 = 0.3023	x1 = 0.4285	x1 = 0.5437	x1 = 0.6829	x1 = 0.8425	x1 = 1
283.15 K	103.7 ± 1.6	133.5 ± 2.1	155.3 ± 2.4	181 ± 2.8	208.3 ± 3.2	259.1 ± 4	305.8 ± 4.7	362.2 ± 5.6	426.5 ± 6.6	489.8 ± 7.6
288.15 K	104 ± 1.6	133.9 ± 2.1	155.9 ± 2.4	181.7 ± 2.8	209.1 ± 3.2	260.4 ± 4	307.3 ± 4.8	364.1 ± 5.6	428.9 ± 6.6	492.6 ± 7.6
293.15 K	104.4 ± 1.6	134.4 ± 2.1	156.5 ± 2.4	182.4 ± 2.8	210 ± 3.3	261.7 ± 4.1	308.9 ± 4.8	366 ± 5.7	431.3 ± 6.7	495.4 ± 7.7
298.15 K	104.8 ± 1.6	135 ± 2.1	157.1 ± 2.4	183.2 ± 2.8	210.9 ± 3.3	263 ± 4.1	310.5 ± 4.8	368 ± 5.7	433.7 ± 6.7	498.3 ± 7.7
303.15 K	105.2 ± 1.6	135.5 ± 2.1	157.8 ± 2.5	184 ± 2.9	211.9 ± 3.3	264.3 ± 4.1	312.2 ± 4.8	370.1 ± 5.7	436.2 ± 6.8	501.2 ± 7.8
308.15 K	105.6 ± 1.6	136.1 ± 2.1	158.5 ± 2.5	184.9 ± 2.9	212.9 ± 3.3	265.7 ± 4.1	313.9 ± 4.9	372.2 ± 5.8	438.7 ± 6.8	504.1 ± 7.8
313.15 K	106.1 ± 1.7	136.7 ± 2.1	159.2 ± 2.5	185.7 ± 2.9	213.9 ± 3.3	267.1 ± 4.1	315.7 ± 4.9	374.4 ± 5.8	441.3 ± 6.8	507.1 ± 7.9
318.15 K	106.5 ± 1.7	137.4 ± 2.1	159.9 ± 2.5	186.6 ± 2.9	215.1 ± 3.3	268.5 ± 4.2	317.5 ± 4.9	376.7 ± 5.8	443.9 ± 6.9	510.2 ± 7.9
323.15 K	107 ± 1.7	138 ± 2.1	160.7 ± 2.5	187.5 ± 2.9	216.2 ± 3.4	269.9 ± 4.2	319.3 ± 4.9	379 ± 5.9	446.6 ± 6.9	513.3 ± 8
